From article PMC9496151, “Expression and Function of ABC Transporters in Human Alveolar Epithelial Cells” (Biomolecules, 2022)

How the values were obtained:
ABCG2/BCRP [1] = assay: Bidirectional transport of Bodipy FL Prazosin (BCRP activity) in hAELVi; assay type: in vitro ADME, human
Protocol: (§1) The activity of ABC transporters was determined by measuring the apical-to-basolateral (AB) and basolateral-to-apical (BA) fluxes of specific substrates. To this aim, cell monolayers were washed twice in HBSS and equilibrated for 30 min in the same solution (pH 7.4, 37 °C). […] After 0, 30, 60, and 120 min, aliquots of the solution were collected from the opposite chamber (receiver chamber) and replaced with the same volume of HBSS. The fluxes were determined by reading fluorescence with an EnSpire® Multimode Plate Reader (Perkin Elmer), or radioactivity with MicroBeta^2 liquid scintillation spectrometer. The apparent permeability coefficient (Papp) was calculated from the data obtained.
(§2) Efflux ratio (ER) was calculated as the ratio between Papp measured for BA and AB fluxes, while uptake ratio (UR) was the ratio between Papp measured for AB and BA fluxes.

ABCG2/BCRP [2] = assay: Bidirectional transport of Bodipy FL Prazosin (BCRP activity) in EpiAlveolar; assay type: in vitro ADME, human
Protocol: as §1, §2

MDR1 [3] = assay: Bidirectional transport of Rhodamine123 (MDR1 activity) in EpiAlveolar; assay type: in vitro ADME, human
Protocol: as §1, §2

MDR1 [4] = assay: Bidirectional transport of Rhodamine123 (MDR1 activity) in hAELVi; assay type: in vitro ADME, human
Protocol: as §1, §2

[5] = 10 µM PSC833, 1 µM Rhodamine123, AB and BA

Protocol for EpiAlveolar™: The paracellular and transcellular permeability of cell monolayers to solutes was assessed by monitoring the apical-to-basolateral fluxes of ^14C-mannitol and ^3H-propranolol, respectively. In detail, cell monolayers were washed and incubated for 30 min in Hank’s Balanced Salt Solution (HBSS, pH 7.4, 37 °C); HBSS containing ^14C-mannitol (1 µCi/mL, corresponding to 20 µM) or ^3H-propranolol (3 µCi/mL; 10 µM) was then added to the apical side. Aliquots of medium were collected from the basolateral compartment after 0, 30, 60, and 120 min and replaced with fresh HBSS; radioactivity in each sample was measured with a MicroBeta^2 liquid scintillation spectrometer (Perkin Elmer, Italy) and employed to calculate the apparent permeability coefficient (Papp).
The apparent permeability coefficient (Papp) of the tracer molecules was calculated according to the equation:Papp = (dQ⁄dt)⁄(A×C0×60) where dQ/dt is the transport rate of the tracer, A is the filter surface area, C0 is the initial concentration of the tracer in the donor chamber, and 60 is the conversion from minutes to seconds.

CC(C)NCC(O)COc1cccc2ccccc12 (centres unmarked) [propranolol]
transcellular permeability (Papp), apical-to-basolateral flux (hAELVi): comparable permeability
transcellular permeability (Papp), apical-to-basolateral flux (EpiAlveolar™): comparable permeability

OC[C@@H](O)[C@@H](O)[C@H](O)[C@H](O)CO [mannitol]
paracellular permeability (Papp), apical-to-basolateral flux (hAELVi): slight not significant difference
paracellular permeability (Papp), apical-to-basolateral flux (EpiAlveolar™): more permeable

Cc1nc(-c2ccc(OCC(C)C)c(C#N)c2)sc1C(=O)O [febuxostat]
inhibition of Bodipy™ FL Prazosin fluxes (ABCG2/BCRP [1]; 50 µM Febuxostat): no inhibition
inhibition of Bodipy™ FL Prazosin fluxes (ABCG2/BCRP [2]; 50 µM Febuxostat): no inhibition

COc1ccc2c3c([nH]c2c1)[C@H](CC(C)C)N1C(=O)[C@H](CCC(=O)OC(C)(C)C)NC(=O)[C@@H]1C3 [Ko143]
inhibition of Bodipy™ FL Prazosin fluxes (ABCG2/BCRP [1]; 20 µM Ko143): no inhibition
inhibition of Bodipy™ FL Prazosin fluxes (ABCG2/BCRP [2]; 20 µM Ko143): no inhibition

COC(=O)c1ccccc1-c1c2ccc(=N)cc-2oc2cc(N)ccc12 [Rhodamine123]
Papp, AB versus BA fluxes (MDR1 [3]; 1 µM Rhodamine123): comparable for AB and BA fluxes
efflux ratio (ER) versus uptake ratio (UR) (MDR1 [3]; 1 µM Rhodamine123): comparable values
Papp, AB versus BA fluxes (MDR1 [4]; 1 µM Rhodamine123): comparable for AB and BA fluxes
efflux ratio (ER) versus uptake ratio (UR) (MDR1 [4]; 1 µM Rhodamine123): comparable values

C/C=C/C[C@@H](C)C(=O)[C@H]1C(=O)N[C@@H](C(C)C)C(=O)N(C)CC(=O)N(C)[C@@H](CC(C)C)C(=O)N[C@@H](C(C)C)C(=O)N(C)[C@@H](CC(C)C)C(=O)N[C@@H](C)C(=O)N[C@H](C)C(=O)N(C)[C@@H](CC(C)C)C(=O)N(C)[C@@H](CC(C)C)C(=O)N(C)[C@@H](C(C)C)C(=O)N1C [PSC833]
effect of inhibitor on Papp of Rhodamine123 (MDR1 [3]; [5]): not modified
effect of inhibitor on Papp of Rhodamine123 (MDR1 [4]; [5]): not modified
